Experimental data from the NIST ThermoML archive (doi:10.1021/je800110r).

Settings: 303.16 K, Liquid, Vibrating tube method

CCCCCCCCCC [decane]
Settings | mass density [kg/m3]
14288 kPa | 733.4
14319 kPa | 733.4
14353 kPa | 733.4
14376 kPa | 733.5
14407 kPa | 733.3
14434 kPa | 733.6
14457 kPa | 733.5
14493 kPa | 733.5
14524 kPa | 733.5
14547 kPa | 733.5
14586 kPa | 733.6
14617 kPa | 733.7
14640 kPa | 733.8
14673 kPa | 733.7
14705 kPa | 733.6
14734 kPa | 733.7
14767 kPa | 733.7
14792 kPa | 733.7
14822 kPa | 733.6
14848 kPa | 733.7
14871 kPa | 733.8
14896 kPa | 733.8
14923 kPa | 733.7
14942 kPa | 734
14976 kPa | 734
14997 kPa | 733.8
15016 kPa | 733.9
15041 kPa | 733.8
15066 kPa | 734
15088 kPa | 733.9
15110 kPa | 734
15133 kPa | 734
15151 kPa | 734
15180 kPa | 734
15209 kPa | 734.1
15228 kPa | 734.1
15257 kPa | 734.1
15283 kPa | 733.9
15302 kPa | 734.1
15329 kPa | 734.1
15355 kPa | 734.2
15378 kPa | 734.3
15404 kPa | 734.2
15434 kPa | 734.3
15454 kPa | 734.3
15481 kPa | 734.3
15504 kPa | 734.2
15524 kPa | 734.3
15557 kPa | 734.3
15584 kPa | 734.2
15605 kPa | 734.4
15639 kPa | 734.4
15669 kPa | 734.3
15690 kPa | 734.4
15720 kPa | 734.3
15744 kPa | 734.5
15769 kPa | 734.4
15790 kPa | 734.3
15814 kPa | 734.5
15838 kPa | 734.6
15867 kPa | 734.4
15889 kPa | 734.5
15918 kPa | 734.5
15947 kPa | 734.5
15968 kPa | 734.6
15997 kPa | 734.6
16029 kPa | 734.6
16050 kPa | 734.6
16076 kPa | 734.7
16098 kPa | 734.8
16123 kPa | 734.7
16149 kPa | 734.7
16172 kPa | 734.7
16206 kPa | 734.6
16237 kPa | 734.7
16261 kPa | 734.7
16288 kPa | 734.7
16311 kPa | 734.9
16331 kPa | 734.8
16355 kPa | 734.9
16372 kPa | 734.9
16395 kPa | 734.8
16413 kPa | 734.8
16443 kPa | 734.9
16470 kPa | 735
16490 kPa | 735.1
16511 kPa | 734.9
16531 kPa | 735.1
16553 kPa | 735
16574 kPa | 734.9
16600 kPa | 735
16618 kPa | 735.1
16642 kPa | 735
16661 kPa | 734.8
16691 kPa | 735.2
16715 kPa | 735
16733 kPa | 735.2
16758 kPa | 735.1
16785 kPa | 735.2
16800 kPa | 735.2
16831 kPa | 735.2
16853 kPa | 735.2
16878 kPa | 735.1
16902 kPa | 735.2
16924 kPa | 735.2
16940 kPa | 735.2
16968 kPa | 735.3
16994 kPa | 735.3
17016 kPa | 735.3
17041 kPa | 735.4
17063 kPa | 735.4
17084 kPa | 735.4
17107 kPa | 735.3
17129 kPa | 735.4
17149 kPa | 735.5
17181 kPa | 735.4
17207 kPa | 735.3
17225 kPa | 735.6
17252 kPa | 735.5
17278 kPa | 735.6
17298 kPa | 735.5
17331 kPa | 735.5
17354 kPa | 735.5
17377 kPa | 735.5
17400 kPa | 735.5
17419 kPa | 735.5
17449 kPa | 735.7
17479 kPa | 735.7
17503 kPa | 735.7
17533 kPa | 735.6
17557 kPa | 735.7
17581 kPa | 735.7
17601 kPa | 735.8
17625 kPa | 735.8
17645 kPa | 735.7
17673 kPa | 735.9
17693 kPa | 735.8
17724 kPa | 735.9
17745 kPa | 735.8
17773 kPa | 735.9
17801 kPa | 735.9
17825 kPa | 735.9
17850 kPa | 735.9
17878 kPa | 735.9
17909 kPa | 736
17931 kPa | 735.9
17959 kPa | 736
17977 kPa | 736.1
18013 kPa | 736
18041 kPa | 736.1
18063 kPa | 736.1
18092 kPa | 736.1
18122 kPa | 736
18144 kPa | 736.1
18169 kPa | 736.2
18195 kPa | 736.2
18227 kPa | 736.2
18253 kPa | 736.1
18275 kPa | 736.3
18304 kPa | 736.2
18334 kPa | 736.3
18356 kPa | 736.2
18390 kPa | 736.2
18413 kPa | 736.4
18436 kPa | 736.4
18466 kPa | 736.3
18489 kPa | 736.3
18523 kPa | 736.4
18546 kPa | 736.4
18569 kPa | 736.4
18595 kPa | 736.4
18614 kPa | 736.5
18641 kPa | 736.5
18664 kPa | 736.5
18699 kPa | 736.5
18738 kPa | 736.5
18762 kPa | 736.5
18789 kPa | 736.5
18820 kPa | 736.6
18843 kPa | 736.6
18883 kPa | 736.7
18914 kPa | 736.5
18938 kPa | 736.8
18962 kPa | 736.7
18998 kPa | 736.7
19031 kPa | 736.7
19060 kPa | 736.7
19085 kPa | 736.7
19122 kPa | 736.9
19159 kPa | 736.8
19184 kPa | 736.8
19223 kPa | 736.9
19247 kPa | 736.9
19269 kPa | 736.8
19302 kPa | 736.9
19335 kPa | 737
19360 kPa | 737
19383 kPa | 737
19412 kPa | 737
19434 kPa | 737
19456 kPa | 737
19477 kPa | 736.9
19498 kPa | 737.1
19522 kPa | 737.1
19544 kPa | 737.2
19566 kPa | 737.2
19587 kPa | 737.1
19612 kPa | 737
19634 kPa | 737.2
19656 kPa | 737.1
19678 kPa | 737.2
19703 kPa | 737.3
19725 kPa | 737.3
19748 kPa | 737.3
19771 kPa | 737.2
19794 kPa | 737.2
19817 kPa | 737.2
19841 kPa | 737.2
19862 kPa | 737.2
19880 kPa | 737.3
19906 kPa | 737.3
19925 kPa | 737.4
19938 kPa | 737.4
19956 kPa | 737.4
19976 kPa | 737.4
19997 kPa | 737.4
20013 kPa | 737.5
20034 kPa | 737.3
20052 kPa | 737.5
20073 kPa | 737.5
20089 kPa | 737.5
20104 kPa | 737.4
20123 kPa | 737.5
20143 kPa | 737.6
20164 kPa | 737.5
20180 kPa | 737.6
20201 kPa | 737.5
20222 kPa | 737.6
20238 kPa | 737.6
20259 kPa | 737.6
20280 kPa | 737.6
20293 kPa | 737.7
20307 kPa | 737.6
20323 kPa | 737.7
20347 kPa | 737.7
20369 kPa | 737.7
20396 kPa | 737.7
20420 kPa | 737.6
20439 kPa | 737.7
20461 kPa | 737.7
20477 kPa | 737.6
20501 kPa | 737.8
20529 kPa | 737.7
20545 kPa | 737.7
20567 kPa | 737.8
20586 kPa | 737.9
20606 kPa | 737.8
20625 kPa | 737.8
20650 kPa | 737.9
20667 kPa | 737.9
20683 kPa | 737.9
20706 kPa | 738
20728 kPa | 737.9
20745 kPa | 738
20764 kPa | 738
20787 kPa | 738.1
20810 kPa | 738
20827 kPa | 738
20846 kPa | 738
20863 kPa | 738
20880 kPa | 738
20897 kPa | 738
20911 kPa | 738.1
